Values joined by “and” are separate entries in the source; they are usually repeats but may differ in a detail not shown here. Equal entries are not always repeated.
What was measured:
Assay type in all cases: in vivo
[1] = tested on: Bemisia tabacii biotype B; assay: Bemisia tabacii spray test (BEMIAR); conditions: 100 ppm, 14 dat, rating scheme b324
Description: Bemisia tabacii—Spray-Test (BEMIAR)
Insect: Bemisia tabacii biotype B
Plant: Tomato seedlings, 5 leaf stage in vinyl pots of 40 mm diameter
(§1) Solvent pre-mixture: Sorpol® SD: Sorpol® BDB:Dimethylformamide=3:3:14
10 mg a.i. is solved with 0.05 ml solvent pre-mixture. Water for dilution contains RME and AS (1000 ppm each) or 0.1% of spreader. Solutions are diluted at the rate of 1:5 for limit concentration determination.
Procedure: Solutions are sprayed to the plants. After drying treated pots are placed in the greenhouse where breeding BEMIAR for an infection-time of 24 h. Then the plants is placed in the testing room at 25° C. and 50-60% r.h., 16L8D lighting conditions.
After the specified period of time mortality in % is determined according to the following scheme/criteria: […]

[2] = tested on: Myzus persicae-resistant strain, mixed population; assay: Myzus persicae spray test (MYZUPE); conditions: 4 ppm, 6 dat
Description: Myzus persicae—Spray Test (MYZUPE)
Insect: Myzus persicae-resistant strain, mixed population
Plant: Eggplant seedling (Solanum melongena var. Senryo 2gou) 2 leaf age (4-5 weeks after sowing), transplanted into vinyl pots of 60 mm diameter
Solvent pre-mixture: Sorpol® SD: Sorpol® BDB:Dimethylformamide=3:3:14; 10 mg a.i. is solved with 0.05 ml solvent pre-mixture. Water for dilution contains RME and AS (1000 ppm each) or 0.1% of spreader. Solutions are diluted at the rate of 1:5 for limit concentration determination.
Procedure: 1 day before treatment aphids are inoculated onto the testing plants, about 50 aphids per leaf, 100 for 1 pot. A paper label is placed on each pot. Solutions are sprayed directly onto both insects and plants. After drying pots are placed in the greenhouse at 20° C.-25° C. and 50-60% relative humidity.
After the specified period of time the mortality in % is determined and the rate of death is calculated according to the following scheme/criteria: […]

[3] = tested on: Frankliniella occidentalis; assay: Frankliniella occidentalis spray test (FRANOC); conditions: 0.16 ppm, 7 dat
Description: (§2) After the specified period of time mortality in % is determined according to the following criteria: • 1 larva dead: 20% Efficacy • 5 larvae dead: 100% Efficacy Frankliniella occidentalis—Spray-Test (FRANOC)
Insect: Frankliniella occidentalis from own culture
Plant: Cucumber seedlings, cotyledon stage
as §1
(§3) 10 mg a i. is solved with 0.05 ml solvent pre-mixture.
(§4) Water for dilution contains RME and AS (1000 ppm each) or 0.1% of spreader. Solutions are diluted at the rate of 1:5 for limit concentration determination.
Procedure: The solution is sprayed to a cucumber seedling. After drying, the plant is placed in a plastic stand. About fifty 1st-instar larvae were inoculated to the plant and covered with a cage. The plant is stored at 25° C.
After the specified period of time % efficacy is determined by rating feeding damages on the plant according to the following criteria: […]

Panonychus citri = Panonychus citri spray test (METTCI); conditions: 4 ppm, 7 dat, rating scheme b306
Description: Panonychus citri—Spray Test (METTCI)
Plant: Citrus plants, ca 8 cm height
as §1, §3, §4
Procedure: 1 day before treatment mites were inoculated onto potted citrus plants, about 50 adults and some nymphs for 1 pot. The test solution is sprayed directly onto both mites and plants. After drying pots are stored at 25° C.
After the specified period of time mortality in % is determined by rating according to the following scheme/criteria.

[4] = tested on: Aulacophora femoralis 2nd instar larvae; assay: Aulacophora femoralis spray test (AUACFE); conditions: 0.8 ppm, 6 dat, rating scheme b297
Description: Aulacophora femoralis—Spray Test (AUACFE)
Insect: Aulacophora femoralis 2nd instar larvae from own culture;
Material: PET cups with 5 ml soil and A-PET lids
Plant: Cucumber (Cucumis sativus var. Hanshiro), cotyledon stage; 1 plant per pot;
Solvent pre-mixture: Sorpol® SD: Sorpol® BDB:Dimethylformamide=3:3:14;
10 mg a.i. solved with 0.05 ml solvent pre-mixture. Water for dilution contains RME and AS (1000 ppm each) or 0.1% of spreader. Solutions are diluted at the rate of 1:5 for limit concentration determination.
Procedure: Solutions are sprayed onto a plant. After drying, plants are cut and put on the soil in the testing cup. Five larvae L2 are released into each testing cup.
The testing cup is covered with the lid and stored at 25° C. and 50-60% r.h., 16L8D lighting conditions.
After the specified period of time, the mortality in % is determined according to the following scheme/criteria: […]

[5] = tested on: Nephotettix cincticeps-MR, resistant strain, 3rd-4th instar nymphs; assay: Nephotettix cincticeps spray test (NEPHCI); conditions: 20 ppm, 7 dat
Description: Nephotettix cincticeps-Spray Test (NEPHCl)
Insect: Nephotettix cincticeps-MR, resistant strain, 3rd-4th instar nymphs from own culture
Plant: Rice seedlings (Oryza sativa var. Tamanishiki)
Material: ST-method container (200 ml desiccant polystyrene bottle) with a hole in the bottom sealed with metal mesh. The lid has a pit inside to keep desiccant, and it is used to sow rice seeds. The bottle is used upside down as “cover”, the lid with seedling is called “base”. Plastic stand-board with magnet labels to line the ST Bases up (“Stand”)
Solvent pre-mixture: Sorpol® SD: Sorpol® BDB:Dimethylformamide=3:3:14 10 mg a i. is solved with 0.05 ml solvent pre-mixture. Water for dilution contains RME and AS (1000 ppm each) or 0.1% of spreader. Solutions are diluted at the rate of 1:5 for limit concentration determination.
Procedure: On a pit in the center of a base (originally the desiccant space) pieces of paper towel are placed. 20-30 germinated rice seeds are sown on the paper and moistened with water. The base is covered with a plastic cup and kept in an incubator at 30° C. for five days.
The base with rice seedlings is placed on the Stand. Each base is sprayed with the solution.
After drying twelve 3rd-4th instar nymphs of Nephotettix cincticeps-MR are put on the base and confined with the cover. The ST containers on the Stands are kept in the testing room at 25° C. and 50-60% r.h., 16L8D lighting conditions.
After the specified period of time mortality in % is determined by rating according to the following scheme/criteria: Counting living moving insects, calculate mortality in % by the formula: […]

Adoxophyes honmai = Adoxophyes honmai test (ADXPFA), treated artificial diet; conditions: 0.8 ppm, 2 dat
Description: Procedure: Broccoli seedlings of 4-5 leaf stage planted in a vinyl pot (9 cm diameter) are sprayed with the solution. After drying half of the leaves of the plants are cut and put into a A-PET cup. Ten larvae of Plutella xylostella L3 are released in the cup and the dish is placed at 25° C. After 4 days another half leaf is cut and added to the dish. After the specified period of time mortality in % is determined according to the figures of mortality used for evaluation. • 1 larva dead: 20% Efficacy • 5 larvae dead: 100% Efficacy Adoxophyes honmai—Test (ADXPFA)
Insect: Adoxophyes honmai from own culture
Material: 1 A-PET cup with lid
Food agent: 4.5 g of artificial diet powder Silkmate-Kantan-3®
as §1
10 mg a i. is solved with 0.05 ml solvent pre-mixture. Water for dilution contains RME and AS (1000 ppm each) or 0.1% of spreader. Solutions are diluted at the rate of 1:5 for limit concentration determination.
Procedure: 4.5 g of artificial diet powder is put into a PET cup (10 cm diameter, 5 cm depth). The powder was leveled to make a layer in the bottom of the cup. […]
as §2

4-{3-[3,5-Bis(trifluoromethyl)phenyl]-3-(trifluoromethyl)-3,4-dihydro-2H-pyrrol-5-yl}-2-methyl-N-(thietan-3-yl)benzamide [Compound 1-19]
Efficacy/day(s) of treatment [1]: 100%/14 dat
Efficacy/day(s) of treatment [2]: 90%/6 dat
Efficacy/day(s) of treatment ([2]; rating scheme): 98%/6 dat
Efficacy/day(s) of treatment [3]: 98%/7 dat
Efficacy/day(s) of treatment (Panonychus citri): 60%/7 dat
Efficacy/day(s) of treatment [4]: 100%/6 dat
Efficacy/day(s) of treatment [5]: 20%/7 dat and 80%/7 dat
Efficacy/day(s) of treatment (Adoxophyes honmai): 60%/2 dat

Cc1cc(C2=NOC(c3cc(C(F)(F)F)cc(C(F)(F)F)c3)(C(F)(F)F)C2)ccc1C(=O)NC1C[S+]([O-])C1 (stereo not drawn) [ExNo A-23 of WO 2009/080250, reference compound]
Efficacy/day(s) of treatment [2]: 60%/6 dat
Efficacy/day(s) of treatment [3]: 60%/7 dat
Efficacy/day(s) of treatment [5]: 40%/7 dat
Efficacy/day(s) of treatment (Adoxophyes honmai): 40%/2 dat
